Results: ChEMBL document CHEMBL5465560, “Selectivity Literature for EUbOPEN Chemogenomic Library” (2024)
pIC50: −log10 of the molar value. Each block holds one compound with its values, some of them ahead of it.

How the values were obtained:
[1] = target: Mitogen-activated protein kinase 11 (Homo sapiens) (UniProt Q15759); conditions: at 10 µM
[2] = target: Serine/threonine-protein kinase MRCK alpha (Homo sapiens) (UniProt Q5VT25); assay: Selectivity interaction (KinomeScan (DiscoverX)) EUB0001049a CDC42BPA; conditions: at 1 µM
Serine/threonine-protein kinase MRCK alpha (Homo sapiens), sequence (Q5VT25 whole entry): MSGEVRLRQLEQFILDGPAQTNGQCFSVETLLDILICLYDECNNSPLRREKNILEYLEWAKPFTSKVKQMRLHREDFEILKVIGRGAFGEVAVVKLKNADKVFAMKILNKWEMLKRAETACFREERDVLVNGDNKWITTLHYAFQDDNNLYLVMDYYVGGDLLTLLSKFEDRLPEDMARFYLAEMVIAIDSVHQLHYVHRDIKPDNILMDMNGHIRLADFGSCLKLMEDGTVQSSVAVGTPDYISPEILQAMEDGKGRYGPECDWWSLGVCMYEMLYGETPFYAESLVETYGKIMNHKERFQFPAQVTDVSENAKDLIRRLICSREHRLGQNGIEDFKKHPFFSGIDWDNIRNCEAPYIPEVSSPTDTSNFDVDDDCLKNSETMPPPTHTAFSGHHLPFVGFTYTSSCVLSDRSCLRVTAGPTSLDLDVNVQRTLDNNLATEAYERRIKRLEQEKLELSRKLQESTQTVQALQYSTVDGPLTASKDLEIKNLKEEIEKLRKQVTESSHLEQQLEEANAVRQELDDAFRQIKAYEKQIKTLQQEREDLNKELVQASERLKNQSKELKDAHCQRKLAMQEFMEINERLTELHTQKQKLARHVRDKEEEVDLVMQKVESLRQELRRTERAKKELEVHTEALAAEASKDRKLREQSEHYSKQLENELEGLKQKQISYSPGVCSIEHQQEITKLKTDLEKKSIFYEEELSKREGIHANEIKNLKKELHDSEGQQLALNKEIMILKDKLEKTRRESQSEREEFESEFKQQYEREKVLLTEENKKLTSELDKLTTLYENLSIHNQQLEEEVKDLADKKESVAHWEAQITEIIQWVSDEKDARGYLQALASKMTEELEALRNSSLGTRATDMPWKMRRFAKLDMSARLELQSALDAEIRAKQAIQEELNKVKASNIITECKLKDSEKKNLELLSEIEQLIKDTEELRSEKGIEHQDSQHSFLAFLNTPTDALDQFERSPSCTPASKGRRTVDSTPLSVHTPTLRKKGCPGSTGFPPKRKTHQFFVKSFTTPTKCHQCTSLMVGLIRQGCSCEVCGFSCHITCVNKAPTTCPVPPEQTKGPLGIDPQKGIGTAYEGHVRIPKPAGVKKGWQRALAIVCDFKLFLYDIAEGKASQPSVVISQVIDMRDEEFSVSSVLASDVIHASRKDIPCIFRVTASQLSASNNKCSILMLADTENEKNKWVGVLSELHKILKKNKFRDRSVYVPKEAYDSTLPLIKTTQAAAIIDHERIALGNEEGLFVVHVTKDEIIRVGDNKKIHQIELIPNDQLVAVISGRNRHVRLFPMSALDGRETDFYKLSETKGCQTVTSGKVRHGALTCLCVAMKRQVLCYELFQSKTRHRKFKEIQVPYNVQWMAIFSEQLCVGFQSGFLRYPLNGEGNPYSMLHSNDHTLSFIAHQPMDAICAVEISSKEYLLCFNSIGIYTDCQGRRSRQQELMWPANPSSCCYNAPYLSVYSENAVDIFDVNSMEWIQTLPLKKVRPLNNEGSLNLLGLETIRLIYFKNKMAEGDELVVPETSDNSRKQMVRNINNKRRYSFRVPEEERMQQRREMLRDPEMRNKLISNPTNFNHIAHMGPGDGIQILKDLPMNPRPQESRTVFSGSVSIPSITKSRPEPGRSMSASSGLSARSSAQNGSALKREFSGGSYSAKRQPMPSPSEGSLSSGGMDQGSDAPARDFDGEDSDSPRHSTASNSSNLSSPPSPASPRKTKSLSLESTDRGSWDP

[3] = target: T1, Cyclin-dependent kinase 11A (Homo sapiens) (UniProt Q9UQ88); assay: Selectivity interaction (ActivX KiNativ screen (kinase selectivity in THP-1 cell lysates)) EUB0000639a CDK11A; type: subcellular; conditions: lysate, at 0.01 µM
T1 sequence (whole entry): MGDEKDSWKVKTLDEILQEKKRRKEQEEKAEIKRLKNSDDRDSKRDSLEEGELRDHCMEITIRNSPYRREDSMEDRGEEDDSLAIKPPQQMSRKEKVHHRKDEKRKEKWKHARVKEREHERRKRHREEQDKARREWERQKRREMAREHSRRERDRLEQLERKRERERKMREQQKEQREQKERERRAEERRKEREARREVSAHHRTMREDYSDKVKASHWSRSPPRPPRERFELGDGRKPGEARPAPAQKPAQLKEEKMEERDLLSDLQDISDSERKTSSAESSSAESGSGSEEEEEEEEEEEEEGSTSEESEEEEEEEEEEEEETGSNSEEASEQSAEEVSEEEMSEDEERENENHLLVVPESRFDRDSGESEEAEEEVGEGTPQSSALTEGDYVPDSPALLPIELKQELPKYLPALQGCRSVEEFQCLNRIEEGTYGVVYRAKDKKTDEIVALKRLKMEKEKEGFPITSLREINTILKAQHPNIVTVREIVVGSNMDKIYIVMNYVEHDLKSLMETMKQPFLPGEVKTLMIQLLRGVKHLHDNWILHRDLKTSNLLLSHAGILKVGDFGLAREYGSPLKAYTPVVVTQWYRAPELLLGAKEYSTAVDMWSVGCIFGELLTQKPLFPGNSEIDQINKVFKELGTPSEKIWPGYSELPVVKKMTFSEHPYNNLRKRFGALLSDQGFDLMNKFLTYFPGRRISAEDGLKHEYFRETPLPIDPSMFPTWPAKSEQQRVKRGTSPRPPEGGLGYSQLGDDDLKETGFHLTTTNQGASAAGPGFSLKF

[4] = target: T2, Serine/threonine-protein kinase TBK1 (Homo sapiens) (UniProt Q9UHD2); assay: Selectivity interaction (ActivX KiNativ screen (kinase selectivity in THP-1 cell lysates)) EUB0000639a TBK1; type: subcellular; conditions: lysate, at 0.2 µM
T2 sequence (whole entry): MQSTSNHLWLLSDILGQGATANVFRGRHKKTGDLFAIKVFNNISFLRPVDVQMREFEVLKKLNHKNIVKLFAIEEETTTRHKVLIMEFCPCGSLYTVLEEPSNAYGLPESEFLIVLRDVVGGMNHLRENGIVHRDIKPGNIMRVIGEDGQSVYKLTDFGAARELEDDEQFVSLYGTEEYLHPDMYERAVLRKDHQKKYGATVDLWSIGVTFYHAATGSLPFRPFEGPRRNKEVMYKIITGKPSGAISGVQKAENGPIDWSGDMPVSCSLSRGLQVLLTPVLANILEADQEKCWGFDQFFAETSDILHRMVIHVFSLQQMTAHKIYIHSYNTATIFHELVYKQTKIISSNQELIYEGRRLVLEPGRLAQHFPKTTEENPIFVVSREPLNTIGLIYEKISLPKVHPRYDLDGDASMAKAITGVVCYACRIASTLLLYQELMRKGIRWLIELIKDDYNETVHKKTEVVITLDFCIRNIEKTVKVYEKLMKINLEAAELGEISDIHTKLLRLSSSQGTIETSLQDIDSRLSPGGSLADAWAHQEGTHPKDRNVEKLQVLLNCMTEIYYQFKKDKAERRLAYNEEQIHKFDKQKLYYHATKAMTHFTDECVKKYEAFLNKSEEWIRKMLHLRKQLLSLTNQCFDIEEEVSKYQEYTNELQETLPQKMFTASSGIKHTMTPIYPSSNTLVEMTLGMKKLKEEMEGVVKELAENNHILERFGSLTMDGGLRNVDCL

[5] = target: Dual specificity mitogen-activated protein kinase kinase 1 (Homo sapiens, UniProt Q02750); assay: Selectivity interaction (ActivX KiNativ screen (kinase selectivity in THP-1 cell lysates)) EUB0000639a MAP2K1; type: subcellular; conditions: lysate, at 0.2 µM
Dual specificity mitogen-activated protein kinase kinase 1, sequence (Q02750 whole entry): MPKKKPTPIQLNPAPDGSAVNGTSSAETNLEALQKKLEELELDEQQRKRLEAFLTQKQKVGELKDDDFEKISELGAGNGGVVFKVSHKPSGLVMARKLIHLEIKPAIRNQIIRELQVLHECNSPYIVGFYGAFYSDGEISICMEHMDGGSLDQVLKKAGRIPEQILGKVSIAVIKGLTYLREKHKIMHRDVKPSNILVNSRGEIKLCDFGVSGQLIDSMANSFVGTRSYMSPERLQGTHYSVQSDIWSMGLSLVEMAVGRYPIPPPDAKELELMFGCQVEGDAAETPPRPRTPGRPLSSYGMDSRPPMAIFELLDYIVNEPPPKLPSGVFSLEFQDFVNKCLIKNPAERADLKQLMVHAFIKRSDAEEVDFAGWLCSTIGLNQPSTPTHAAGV

[6] = target: Serine/threonine-protein kinase 24 (Homo sapiens) (UniProt Q9Y6E0); assay: Selectivity interaction (ActivX KiNativ screen (kinase selectivity in THP-1 cell lysates)) EUB0000639a STK24; type: subcellular; conditions: lysate, at 5 µM
Serine/threonine-protein kinase 24 (Homo sapiens), sequence (Q9Y6E0 whole entry, looked up): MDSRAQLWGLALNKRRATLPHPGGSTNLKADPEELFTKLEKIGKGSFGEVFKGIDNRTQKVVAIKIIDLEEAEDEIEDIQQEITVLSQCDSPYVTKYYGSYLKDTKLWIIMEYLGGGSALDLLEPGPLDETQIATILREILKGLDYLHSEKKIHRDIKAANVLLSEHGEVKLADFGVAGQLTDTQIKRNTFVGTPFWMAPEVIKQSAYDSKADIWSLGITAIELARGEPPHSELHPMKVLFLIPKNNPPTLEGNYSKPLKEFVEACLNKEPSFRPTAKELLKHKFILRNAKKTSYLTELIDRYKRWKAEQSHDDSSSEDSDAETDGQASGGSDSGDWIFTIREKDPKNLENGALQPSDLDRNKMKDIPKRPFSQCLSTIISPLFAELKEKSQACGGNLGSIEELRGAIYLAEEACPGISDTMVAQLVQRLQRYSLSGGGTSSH

[7] = target: Vascular endothelial growth factor receptor 2 (Homo sapiens, UniProt P35968)
[8] = target: Tyrosine-protein kinase JAK2 (Homo sapiens, UniProt O60674); assay: Selectivity interaction (KinomeScan (DiscoverX)) EUB0001079a JAK2; conditions: at 1 µM
[9] = test system: Tyrosine-protein kinase ABL1 (Homo sapiens), P00519 [F317I]; assay: Selectivity interaction (KinomeScan (DiscoverX)) EUB0000666a ABL1; conditions: at 10 µM
Tyrosine-protein kinase ABL1 (Homo sapiens), P00519 [F317I], sequence (P00519 whole entry F317I): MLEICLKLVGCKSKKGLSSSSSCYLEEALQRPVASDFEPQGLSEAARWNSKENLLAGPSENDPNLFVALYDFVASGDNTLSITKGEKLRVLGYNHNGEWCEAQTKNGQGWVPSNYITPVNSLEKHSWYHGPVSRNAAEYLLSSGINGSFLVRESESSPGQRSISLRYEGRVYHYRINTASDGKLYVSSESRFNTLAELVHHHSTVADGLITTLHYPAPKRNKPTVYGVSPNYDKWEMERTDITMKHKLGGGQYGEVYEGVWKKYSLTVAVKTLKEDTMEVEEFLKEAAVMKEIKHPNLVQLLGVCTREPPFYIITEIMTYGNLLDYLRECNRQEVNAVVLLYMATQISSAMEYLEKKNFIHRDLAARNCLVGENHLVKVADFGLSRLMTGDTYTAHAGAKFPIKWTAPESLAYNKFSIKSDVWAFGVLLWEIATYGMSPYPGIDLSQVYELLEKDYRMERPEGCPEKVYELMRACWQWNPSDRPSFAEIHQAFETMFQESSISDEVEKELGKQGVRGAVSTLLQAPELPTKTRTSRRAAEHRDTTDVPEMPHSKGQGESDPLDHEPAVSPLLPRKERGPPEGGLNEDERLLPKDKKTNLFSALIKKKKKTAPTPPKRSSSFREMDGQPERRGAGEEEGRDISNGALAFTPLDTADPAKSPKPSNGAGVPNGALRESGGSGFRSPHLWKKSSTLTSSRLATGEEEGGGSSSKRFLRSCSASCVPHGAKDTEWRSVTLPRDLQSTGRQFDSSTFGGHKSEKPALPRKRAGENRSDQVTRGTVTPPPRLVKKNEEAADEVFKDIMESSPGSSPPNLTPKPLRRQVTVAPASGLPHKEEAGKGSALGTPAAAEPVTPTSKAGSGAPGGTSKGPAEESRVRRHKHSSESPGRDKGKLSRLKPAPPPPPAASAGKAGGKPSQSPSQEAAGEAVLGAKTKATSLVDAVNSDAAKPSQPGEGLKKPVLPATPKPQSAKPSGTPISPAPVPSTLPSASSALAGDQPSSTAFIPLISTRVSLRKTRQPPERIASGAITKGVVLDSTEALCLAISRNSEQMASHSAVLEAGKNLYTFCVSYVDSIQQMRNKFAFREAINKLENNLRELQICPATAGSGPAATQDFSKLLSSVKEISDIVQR

[10] = target: T3, Inhibitor of nuclear factor kappa-B kinase subunit epsilon (Homo sapiens) (UniProt Q14164); assay: Selectivity interaction (KinomeScan (DiscoverX)) EUB0000666a IKBKE; conditions: at 10 µM
T3 sequence (whole entry): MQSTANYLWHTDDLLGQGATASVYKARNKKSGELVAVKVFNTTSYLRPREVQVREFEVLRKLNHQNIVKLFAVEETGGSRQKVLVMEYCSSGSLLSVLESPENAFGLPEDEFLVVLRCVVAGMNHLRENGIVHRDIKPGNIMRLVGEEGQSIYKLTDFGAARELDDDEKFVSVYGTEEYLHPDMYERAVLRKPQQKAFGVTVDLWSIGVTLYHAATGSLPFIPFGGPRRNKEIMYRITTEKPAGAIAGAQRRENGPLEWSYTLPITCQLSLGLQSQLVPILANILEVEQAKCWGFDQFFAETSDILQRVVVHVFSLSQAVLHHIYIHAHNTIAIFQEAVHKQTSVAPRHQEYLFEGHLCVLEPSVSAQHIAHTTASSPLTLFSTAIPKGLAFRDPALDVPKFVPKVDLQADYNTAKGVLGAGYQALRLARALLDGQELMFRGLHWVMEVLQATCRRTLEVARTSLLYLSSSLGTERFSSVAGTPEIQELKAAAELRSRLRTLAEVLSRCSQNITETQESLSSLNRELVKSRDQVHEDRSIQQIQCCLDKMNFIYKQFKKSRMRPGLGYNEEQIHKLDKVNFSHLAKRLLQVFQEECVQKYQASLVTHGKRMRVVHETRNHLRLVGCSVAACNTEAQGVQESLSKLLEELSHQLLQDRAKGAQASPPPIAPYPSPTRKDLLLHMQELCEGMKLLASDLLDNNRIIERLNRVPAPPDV

[11] = target: Serine/threonine-protein kinase Nek7 (Homo sapiens) (UniProt Q8TDX7); assay: Selectivity interaction (Kinase panel (DSF assay)) EUB0001558a NEK7
Serine/threonine-protein kinase Nek7 (Homo sapiens), sequence (Q8TDX7 whole entry, looked up): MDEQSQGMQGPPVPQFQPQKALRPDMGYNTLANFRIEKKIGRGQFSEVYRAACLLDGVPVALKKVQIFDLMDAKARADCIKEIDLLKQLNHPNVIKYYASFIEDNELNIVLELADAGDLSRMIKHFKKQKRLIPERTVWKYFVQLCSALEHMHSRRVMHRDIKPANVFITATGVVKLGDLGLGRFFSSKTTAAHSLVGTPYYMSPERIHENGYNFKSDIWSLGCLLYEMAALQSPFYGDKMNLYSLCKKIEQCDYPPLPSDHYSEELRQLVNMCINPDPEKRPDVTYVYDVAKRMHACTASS

Mitogen-activated protein kinase 11 (Homo sapiens), sequence (Q15759 whole entry): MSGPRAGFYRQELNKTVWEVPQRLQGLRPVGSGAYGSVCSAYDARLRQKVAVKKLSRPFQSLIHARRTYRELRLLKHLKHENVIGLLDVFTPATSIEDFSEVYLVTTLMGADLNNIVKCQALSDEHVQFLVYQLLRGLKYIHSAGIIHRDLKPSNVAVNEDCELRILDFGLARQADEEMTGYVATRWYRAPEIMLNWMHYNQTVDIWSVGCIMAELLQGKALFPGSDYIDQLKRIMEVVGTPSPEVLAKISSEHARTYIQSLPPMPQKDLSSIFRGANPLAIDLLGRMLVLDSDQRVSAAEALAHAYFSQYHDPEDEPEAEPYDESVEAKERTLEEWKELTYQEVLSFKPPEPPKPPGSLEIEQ

SMILES: Cc1cc([C@@H](C)Nc2ccccc2C(=O)O)c2nc(N3CCOCC3)cc(=O)n2c1 [AZD-6482]
% of control [1]: 91%

SMILES: COc1cc(Nc2nc(C)cc(-c3cnn4nc(OC)ccc34)n2)cc(C(F)(F)F)c1
% of control [2]: 92%

% of inhibition [3]: 11.4% | % of inhibition [4]: -31.6% | % of inhibition [5]: 3.9% | % of inhibition [6]: 3.2%
SMILES: CC[C@@H]1[C@H](F)C(=O)N[C@@H]1COc1nccc2cc(C(N)=O)c(OC)cc12 [ZIMLOVISERTIB]

pIC50 [7]: < 5.00
SMILES: CCc1cccc(CC)c1NC(=O)c1nn(C)c2c1CCc1cnc(Nc3ccc(C(=O)NC4CCN(C)CC4)cc3OC(F)(F)F)nc1-2

SMILES: Nc1cnc(N2CCc3cc(S(=O)(=O)Nc4c(F)cc(Cl)cc4F)cc(N4CCCC4=O)c32)nc1 [TP-020n]
% of control [8]: 100%

SMILES: O=C(NOC[C@H](O)CO)c1ccc(F)c(F)c1Nc1ccc(I)cc1F
% of control [9]: 100% | % of control [10]: 100%

SMILES: CC(C)(O)[C@H](F)CN1Cc2cc(NC(=O)c3cnn4cccnc34)c(N3CCOCC3)cc2C1=O
dTM [11]: -0.2 K
